Assay results from paper PMC3914206.

How the values were obtained:
Assay type in all cases: binding
[1] = target: T1, panel of 442 kinases (Homo sapiens, UniProt P35916); settings: Compound Concentration 10 µM
T1 construct: purchased KINOMEscan
Description: (§1) We assessed the selectivity of members of this scaffold using the KINOMEscan methodology across a near comprehensive panel of 442 kinases [[18,27]].

[2] = target: T2, panel of 442 kinases (Homo sapiens, UniProt P57059); settings: kinase SIK; compound concentration 10 µM
T2 construct: purchased KINOMEscan
Description: as §1

[3] = target: T3, panel of 442 kinases (Homo sapiens, UniProt Q15139); settings: Compound Concentration 10 µM
T3 construct: purchased KINOMEscan
T3 sequence (Q15139 1-912): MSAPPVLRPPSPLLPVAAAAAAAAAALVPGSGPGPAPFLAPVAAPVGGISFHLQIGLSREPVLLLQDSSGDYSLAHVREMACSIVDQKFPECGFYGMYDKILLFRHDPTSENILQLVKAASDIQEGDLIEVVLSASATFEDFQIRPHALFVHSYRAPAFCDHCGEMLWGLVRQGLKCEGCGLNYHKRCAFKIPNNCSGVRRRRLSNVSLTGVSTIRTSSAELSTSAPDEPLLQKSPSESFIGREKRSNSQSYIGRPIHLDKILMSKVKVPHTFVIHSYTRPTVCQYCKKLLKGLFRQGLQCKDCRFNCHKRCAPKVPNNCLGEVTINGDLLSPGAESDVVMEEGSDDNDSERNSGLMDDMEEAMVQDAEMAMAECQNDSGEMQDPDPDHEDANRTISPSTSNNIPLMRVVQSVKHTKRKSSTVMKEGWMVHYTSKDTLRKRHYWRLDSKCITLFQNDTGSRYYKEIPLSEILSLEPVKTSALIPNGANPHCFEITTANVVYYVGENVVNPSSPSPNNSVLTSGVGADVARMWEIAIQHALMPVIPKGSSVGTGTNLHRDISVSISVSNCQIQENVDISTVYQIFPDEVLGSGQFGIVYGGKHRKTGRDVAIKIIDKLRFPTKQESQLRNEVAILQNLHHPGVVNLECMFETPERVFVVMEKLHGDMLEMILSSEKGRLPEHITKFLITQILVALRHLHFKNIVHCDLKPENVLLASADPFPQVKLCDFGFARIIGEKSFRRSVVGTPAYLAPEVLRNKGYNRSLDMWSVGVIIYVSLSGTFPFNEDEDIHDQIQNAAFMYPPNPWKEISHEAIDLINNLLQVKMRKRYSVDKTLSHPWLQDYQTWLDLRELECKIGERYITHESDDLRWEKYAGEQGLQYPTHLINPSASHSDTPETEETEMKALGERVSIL
Description: as §1

T1 sequence (P35916 25-1363): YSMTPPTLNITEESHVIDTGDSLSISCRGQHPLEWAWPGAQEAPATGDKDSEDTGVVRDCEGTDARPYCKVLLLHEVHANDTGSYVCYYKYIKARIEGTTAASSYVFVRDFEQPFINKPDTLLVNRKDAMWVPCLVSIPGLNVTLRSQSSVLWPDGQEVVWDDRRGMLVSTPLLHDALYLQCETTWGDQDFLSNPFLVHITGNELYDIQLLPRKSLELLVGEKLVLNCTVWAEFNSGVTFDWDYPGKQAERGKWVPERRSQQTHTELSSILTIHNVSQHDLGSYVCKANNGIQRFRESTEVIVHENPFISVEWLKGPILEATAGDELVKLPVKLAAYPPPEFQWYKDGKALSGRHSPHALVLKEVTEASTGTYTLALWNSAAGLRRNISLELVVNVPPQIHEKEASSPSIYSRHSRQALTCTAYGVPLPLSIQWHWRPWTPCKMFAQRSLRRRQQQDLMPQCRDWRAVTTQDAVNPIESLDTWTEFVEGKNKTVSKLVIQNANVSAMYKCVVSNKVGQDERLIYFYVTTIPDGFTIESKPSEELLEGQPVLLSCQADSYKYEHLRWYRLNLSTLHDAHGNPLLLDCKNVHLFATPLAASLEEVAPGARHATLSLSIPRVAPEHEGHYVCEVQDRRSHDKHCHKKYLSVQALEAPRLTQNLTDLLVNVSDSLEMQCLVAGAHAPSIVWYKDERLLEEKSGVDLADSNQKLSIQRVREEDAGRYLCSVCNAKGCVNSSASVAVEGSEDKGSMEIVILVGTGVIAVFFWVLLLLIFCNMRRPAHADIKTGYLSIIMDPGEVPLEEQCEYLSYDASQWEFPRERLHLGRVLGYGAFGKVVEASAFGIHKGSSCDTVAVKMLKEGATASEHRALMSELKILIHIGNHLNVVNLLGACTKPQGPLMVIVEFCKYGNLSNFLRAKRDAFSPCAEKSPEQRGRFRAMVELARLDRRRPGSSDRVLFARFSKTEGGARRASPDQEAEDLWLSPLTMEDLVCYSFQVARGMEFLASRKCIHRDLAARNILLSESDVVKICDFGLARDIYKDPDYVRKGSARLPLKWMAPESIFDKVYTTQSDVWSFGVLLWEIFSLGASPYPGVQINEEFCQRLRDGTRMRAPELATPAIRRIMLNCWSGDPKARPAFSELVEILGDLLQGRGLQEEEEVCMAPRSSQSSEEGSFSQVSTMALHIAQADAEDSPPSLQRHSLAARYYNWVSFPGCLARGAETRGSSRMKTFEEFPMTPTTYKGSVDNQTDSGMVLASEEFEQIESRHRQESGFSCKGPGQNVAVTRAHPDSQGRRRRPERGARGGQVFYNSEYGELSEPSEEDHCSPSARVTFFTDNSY
T2 sequence (P57059 whole entry): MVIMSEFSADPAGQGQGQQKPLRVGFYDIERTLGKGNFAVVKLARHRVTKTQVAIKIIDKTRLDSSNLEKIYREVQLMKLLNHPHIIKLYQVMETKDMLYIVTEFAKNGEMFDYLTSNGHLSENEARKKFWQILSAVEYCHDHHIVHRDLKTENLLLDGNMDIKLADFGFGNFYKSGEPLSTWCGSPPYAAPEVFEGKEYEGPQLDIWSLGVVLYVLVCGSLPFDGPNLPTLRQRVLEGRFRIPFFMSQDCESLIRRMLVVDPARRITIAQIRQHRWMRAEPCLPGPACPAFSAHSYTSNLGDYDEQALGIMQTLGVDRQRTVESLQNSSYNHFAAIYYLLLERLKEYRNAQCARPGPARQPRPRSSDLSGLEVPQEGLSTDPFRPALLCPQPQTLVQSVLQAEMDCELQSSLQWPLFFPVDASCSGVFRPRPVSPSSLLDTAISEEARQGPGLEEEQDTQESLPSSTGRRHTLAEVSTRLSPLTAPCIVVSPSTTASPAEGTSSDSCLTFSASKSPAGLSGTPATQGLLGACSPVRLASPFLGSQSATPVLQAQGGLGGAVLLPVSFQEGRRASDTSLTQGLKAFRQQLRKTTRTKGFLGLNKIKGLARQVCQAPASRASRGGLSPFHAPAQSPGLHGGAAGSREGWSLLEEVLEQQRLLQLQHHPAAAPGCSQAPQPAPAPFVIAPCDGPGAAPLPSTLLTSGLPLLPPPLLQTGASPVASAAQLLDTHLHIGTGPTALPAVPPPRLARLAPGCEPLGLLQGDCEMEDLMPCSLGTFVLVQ

| Structure (SMILES) | KINOMEscan: FLT4 [1] | % Ctrl, SIK [2] | KINOMEscan: PRKD1 [3] |
| --- | --- | --- | --- |
| COc1cc(C(=O)N2CCC(N3CCN(C)CC3)CC2)ccc1Nc1ncc2c(n1)N(C1CCCC1)c1ccccc1C(=O)N2C [Compound 25, 11-cyclopentyl-2-((2-methoxy-4-(4-(4-methylpiperazin-1-yl)piperidine-1-carbonyl)phenyl)amino)-5-methyl-5H-benzo[e]pyrimido[5,4-b][1,4]diazepin-6(11H)-one] | 100 | 98 % Ctrl | 100 |
| CCOc1cc(C(=O)N2CCC(N3CCN(C)CC3)CC2)ccc1Nc1ncc2c(n1)N(C1CCCC1)c1ccccc1C(=O)N2C [Compound 26] | 100 | 100 % Ctrl | 100 |
| COc1cc(C(=O)N2CCC(N3CCN(C)CC3)CC2)ccc1Nc1ncc2c(n1)N1CCc3cccc(c31)C(=O)N2C [Compound 24] | – | 90 % Ctrl | 21 |
| COc1cc(C(=O)N2CCC(N3CCN(C)CC3)CC2)ccc1Nc1ncc2c(n1)N(C)c1ccccc1C(=O)N2C [15 (LRRK2-IN-1)] | 100 | 77 % Ctrl | 28 |
